Patent US9834514B2, “Antibiotic sensitivity-restoring and photosensitive agents” (New Mexico Tech Research Foundation, priority 2015, dated 2017)
In brackets after ≈: the same amount, converted by molar mass. Read-outs that look alike come from different tables or passages of the source.

What was measured:
E. coli [1] = experiment: Resensitization to antibiotics (log reduction, TABLE 29); assay type: cell-based; details: compound 1 μM
MRSA = experiment: Minimum bactericidal concentration (MBC) with and without white light; assay type: cell-based, S. aureus; details: Staphylococcus aureus, light or radiation study
Description: The bacterial media was inoculated with bacteria and incubated overnight. The bacterial cultures were diluted to 5×10^8 CFU/mL using a McFarland latex turbidity standard (0.5). Compound 1 was diluted with sterile DMSO, which was added to the cell suspension in glass culture tubes. The cells were then incubated for 30 minutes at 37° C. on a rotary shaking incubator at 150 rpm. 500 μL of the treated cell suspension was added to a well on a sterile ceramic drop plate. Non-coherent white light from a Lumacare™ LC-122 unit was used to irradiate the samples. The end of the light probe was placed 3 cm above the sample well, perpendicular to the surface of the sample, and light was applied for 2 minutes (15 seconds light, 15 seconds dark). 200 μL of the irradiated sample was transferred to a 96-well plastic microtiter plate and five ten-fold dilutions were made in the media. 10 μL of each dilution was dripped onto an agar media plate and was allowed to streak down the plate by tilting the plate down. The agar plates were incubated at 37° C. overnight and colony counts were performed to calculate the CFU/mL.
TABLE 14 details the MBC values of compounds 1-6 against MRSA with and without irradiation with white light. Irradiation involved treatment with a LumaCare™ light source at 3 cm from media for 1 min.

E. coli [2] = experiment: Treatment with compound 1 and PMB at fixed concentrations, with and without white light; assay type: cell-based
Description: FIG. 54 is an example of the treatment of E. coli with compound 1 and PMB at fixed concentrations with and without irradiation using white light (λ).

S. aureus ATCC 29213 = experiment: Resensitization to antibiotics (log reduction, TABLE 29); assay type: cell-based
[3] = system: SW1088 (human brain astrocytoma); experiment: Light-activated killing of cell lines (IC50 with/without light); assay type: cell-based
Description: (§1) TABLE 15 depicts the IC50 of compounds in the presence or absence of light for human cell lines. The cell lines used were HeLa (human cervical adenocarcinoma), U-87 MG (human brain gliobastoma), MES-SA (human uterine sarcoma), MES-SA/D×5 (human uterine sarcoma grown in presence of doxorubicin), NCI-H441 (human lung papillary adenocarcinoma), A549 (human lung carcinoma), WI-38 (human embryonic lung normal), MCF7 (human breast adenocarcinoma), SW1088 (human brain astrocytoma), B16F10 (mouse skin melanoma), NIH-3T3 (mouse fibroblast), and Jurkat (human lymphoblastoma). “1-Sol” in TABLE 15 was generated by dissolving compound 1 and potassium hydroxide at a 1:1 ratio in a DMSO/water solution. The cells were irradiated with continuous white light using a LumaCare™ light source for 2 minutes at a distance of 6.5 cm from the cells.

[4] = system: MCF7 (human breast adenocarcinoma); experiment: as above; assay type: cell-based
Description: as §1

[5] = system: NCI-H441 (human lung papillary adenocarcinoma); experiment: as above; assay type: cell-based
Description: as §1

[6] = system: MES-SA (human uterine sarcoma); experiment: as above; assay type: cell-based
Description: as §1

[7] = system: WI-38 (human embryonic lung normal); experiment: as above; assay type: cell-based
Description: as §1

[8] = system: MES-SA/Dx5 (human uterine sarcoma grown in presence of doxorubicin); experiment: as above; assay type: cell-based
Description: as §1

[9] = system: U-87 MG (human brain gliobastoma); experiment: as above; assay type: cell-based
Description: as §1

[10] = system: A549 (human lung carcinoma); experiment: as above; assay type: cell-based
Description: as §1

[11] = system: Jurkat (human lymphoblastoma); experiment: as above; assay type: cell-based
Description: as §1

MCF7A = experiment: as above; assay type: cell-based
Description: as §1

[12] = system: B16F10 (mouse skin melanoma); experiment: as above; assay type: cell-based
Description: as §1

MRSA (ATCC No. BAA-44) = experiment: Synergy of compound 1 with antibiotics, isobologram; assay type: cell-based, S. aureus; details: vancomycin, tetracycline, doxycycline, norfloxacin, dicloxicillin, oxacillin, penicillin G, tobramycin; FIGS. 14, 15
Description: The synergy of two compounds with varying relative potencies can be represented using an isobologram. An isobologram plots the normalized effective concentrations of each drug on each axis, where the sum of the two concentrations equals the line of additivity. Outside the line of additivity, when the sum>1, the effect of the two drugs is considered antagonistic; inside of the line of additivity, when the sum<1, the effect of the two drugs is considered superadditive, or when the sum≦0.5, the effect of the two drugs is considered synergistic.
An illustrative example based on a single data point for each antibiotic in combination with compound 1 against MRSA (ATCC No. BAA-44) is shown in FIG. 14. A zoomed-in isobologram for the same data as shown in FIG. 14 is depicted in FIG. 15 specifically for the synergistic area.

[13] = system: S. pyogenes (ATCC No. 8133); experiment: MIC against S. pyogenes; assay type: cell-based; details: Streptococcus pyogenes, ATCC8133; compound alone
Description: The error bars in FIG. 12 represent the variations between three replicate determinations.

[14] = 2 min, white light 2 minutes, read-out: Compound + light IC50
[15] = no light, read-out: Compound IC50

Structure (SMILES): Clc1ccc(/C=C/c2[nH]c3ccccc3c2/C=C/c2ccc(Cl)cc2)cc1 [Compound 1]
- Log Reduction (E. coli [1]; PMB (0.1 μg/mL)): 4
- Log Reduction (E. coli [1]; PMB (0.1 μg/mL) + Light (2 min)): 7
- MBC (MRSA; 1 min, LumaCare light source at 3 cm from media for 1 min, read-out: MBC with irradiation): 1 µM (≈ 0.39 µg/mL)
- MBC (MRSA; no irradiation, read-out: MBC in the dark): 200 µM (≈ 78.1 µg/mL)
- cell killing with compound 1, PMB and white light (E. coli [2]; FIG. 54): PMB was more efficacious in cell killing when co-administered with compound 1 and light
- killing by combination of compound 1 and PMB (CFU) (E. coli [2]; compared to either agent alone, FIG. 17): effective at killing E. coli
- Log Reduction (S. aureus ATCC 29213; compound 1 μM, Light (2 min)): 6
- Log Reduction (S. aureus ATCC 29213; compound 5 μM, Norfloxacin (0.5 μg/mL)): 6
- Log Reduction (S. aureus ATCC 29213; compound 5 μM, Tetracycline (0.1 μg/mL)): 5
- IC50 [3, 14]: 470 ± 30 nM
- IC50 [3, 15]: > 50000 nM
- IC50 [4, 14]: 330 ± 40 nM
- IC50 [4, 15]: 17800 ± 220 nM
- IC50 [5, 14]: 760 ± 70 nM
- IC50 [5, 15]: 50700 ± 4370 nM
- IC50 [6, 14]: 360 ± 50 nM
- IC50 [6, 15]: 42700 ± 3400 nM
- IC50 [7, 14]: 330 ± 80 nM
- IC50 [7, 15]: 63400 ± 5480 nM
- IC50 ([8]; Homo sapiens, MES-SA/Dx5, 2 min, MES-SA/Dx5 (no doxorubicin), white light 2 minutes, read-out: Compound + light IC50): 720 ± 70 nM
- IC50 ([8]; Homo sapiens, MES-SA/Dx5, 2 min, MES-SA/Dx5 + doxorubicin, white light 2 minutes, read-out: Compound + light IC50): 440 ± 100 nM
- IC50 ([8]; Homo sapiens, MES-SA/Dx5, MES-SA/Dx5 + doxorubicin, no light, read-out: Compound IC50): 38800 ± 2760 nM
- IC50 ([8]; MES-SA/Dx5 (no doxorubicin), white light 2 minutes, read-out: Compound + light IC50): 620 ± 30 nM
- IC50 ([9]; 2 min, U-87 MG (spheroids), white light 2 minutes, read-out: Compound + light IC50): 450 nM
- IC50 [9, 14]: 560 ± 20 nM
- IC50 ([9]; U-87 MG (spheroids), no light, read-out: Compound IC50): > 40000 nM
- IC50 [9, 15]: 44600 ± 3680 nM
- IC50 [10, 14]: 840 ± 320 nM
- IC50 [10, 15]: 17400 ± 1520 nM
- IC50 [11, 14]: 25 nM
- IC50 [11, 15]: > 10000 nM
- IC50 (MCF7A; [14]): 400 ± 10 nM
- IC50 (MCF7A; [15]): 24500 ± 200 nM
- IC50 ([12]; B16-F10, 2 min, white light 2 minutes, read-out: Compound + light IC50): 410 ± 220 nM
- IC50 ([12]; B16-F10, no light, read-out: Compound IC50): 18700 ± 990 nM
- synergy with antibiotics (isobologram) (MRSA (ATCC No. BAA-44)): able to synergize with every tested antibiotic
- MIC [13]: 100 µM (≈ 39 µg/mL)
